Data from article PMC9579148 (European Journal of Medicinal Chemistry, 2022).
Residues, ends and D or L forms follow the SMILES beside them. *: point of attachment. Octanoyl = CCCCCCCC(=O)*; Boc = CC(C)(C)OC(=O)*

Columns and labels:
SARS-CoV-2 M^pro = SARS-CoV-2 M^pro (Severe acute respiratory syndrome coronavirus 2, UniProt P0DTD1); format: binding; settings: ITC
SARS-CoV-2 = settings: read-out: anti-SARS-CoV-2 activity EC50; cited from earlier work
[1] = Stability test in aqueous solution; format: physicochemical; settings: PBS pH 7.0, 25 °C and 37 °C, 3, 6, 8 and 24 h, HPLC
[2] = tested on: SARS-CoV-2 RG2674 (South African); assay: Antiviral CPE reduction assay in Vero cells, RG2674; format: cell-based; settings: 100 CCID50, CPE, 5 days
M^pro = settings: octapeptide progenitor, earlier work; cited from earlier work

Row | Molecule | Stoichiometry (N) (SARS-CoV-2 M^pro) | Cytotoxicity, Cell morphology (MCC) (Vero cells) [μM] | EC50 (SARS-CoV-2) [µM] | also measured
1 | CCCCCCCC(=O)NCC(=O)N[C@@H](Cc1ccccc1)C(=O)N[C@H](C=O)Cc1c[nH]cn1 [compound 58, Octanoyl-Gly-Phe-His-CHO] (Octanoyl-Gly-Phe-His-aldehyde) | 0.966 ± 0.013 | ≥100 | – | –
2 | Ac-GGVLVQPG-NH2 [peptide 2] | – | – | 17.6 ± 2.4 | –
3 | CC(=O)NCC(=O)N[C@@H](Cc1ccccc1)C(=O)N[C@H](C=O)Cc1c[nH]cn1 [compound 4, Ac-Gly-Phe-His-CHO] (Ac-Gly-Phe-His-aldehyde) | 1.040 ± 0.012 | ≥100 | – | Stability in aqueous solution [1]: stable; Antiviral activity (EC50) RG2674 [2]: ineffective
4 | AT1001 | – | – | – | enzymatic inhibition activity (partial inhibition) (M^pro): about 30%
5 | Cc1cc(C(=O)N[C@@H](C)C(=O)N[C@H](C(=O)N[C@@H](CC(C)C)C(=O)N[C@H](/C=C/C(=O)OCc2ccccc2)C[C@@H]2CCNC2=O)C(C)C)no1 [N3, reference compound] | – | – | 16.8 ± 1.7 | –
6 | CC(C)(C)OC(=O)NCC(=O)N[C@@H](Cc1ccccc1)C(=O)N[C@H](C=O)Cc1c[nH]cn1 [compound 57, Boc-Gly-Phe-His-CHO] (Boc-Gly-Phe-His-aldehyde) | 0.991 ± 0.015 | ≥100 | – | –
